Source: patent US8148392B2, “2-indolyl imidazo [4,5-d] phenanthroline derivatives and their use in the treatment of cancer” (Lorus Therapeutics Inc., priority 2005, dated 2012)
Entries after “also recorded” stand apart in the source; their conditions may differ.

What was measured:
[1] = tested on: 12 human tumour cell lines; test: Hollow fiber assay; assay type: in vivo, athymic mice; details: for net cell kill: cell lines with net cell kill
From the text: For example, the in vivo activity of candidate compounds can also be tested using the Hollow Fiber Assay (Hollingshead, M., et al., (1995) Life Sciences 57:131-141; and Decker et al., Eur. J. of Cancer 40: 821-826 (2004)). In this assay, cells growing in hollow fibers (polyvinylidine fluoride, PVDF) are implanted in various body compartments of mice. A standard panel of 12 tumour cell lines can be used for the hollow fiber screening of candidate compounds which have shown activity in vitro. These cell lines may include NCI-H23, NCI-H522, MDA-MB-231, MDA-MB-435, SW-620, COLO 205, LOX-IMVI, UACC-62, OVCAR-3, OVCAR-5, U251 and SF-295. In addition, alternate lines such as those described in the above in vitro section can be used for specialized testing of compounds. The cell lines are cultivated according to standard protocols, and fibers are prepared by flushing cells into the PVDF fibers and sealing them at 2 cm intervals. The samples generated from these seals are placed into tissue culture medium and incubated at 37° C. in 5% CO2 for 24 to 48 hours prior to implantation. A total of 3 different tumour lines are prepared for each experiment so that each mouse receives 3 intraperitoneal implants (1 of each tumour line) and 3 subcutaneous implants (1 of each tumour line). On the day of implantation, samples of each tumour cell line preparation are quantitated for viable cell mass by, for example, a stable endpoint MTT assay, so that the time zero cell mass is known. Mice are treated with experimental agents starting on day 3 or 4 following fiber implantation and continuing daily for 4 days. Each agent is administered by intraperitoneal injection at 2 dose levels. The fibers are collected from the mice on the day following the fourth compound treatment and subjected to the stable endpoint MTT assay. The optical density of each sample is determined spectrophotometrically at 540 nm and the mean of each treatment group is calculated. The percent net growth for each cell line in each treatment group is calculated and compared to the percent net growth in the vehicle treated controls. A 50% or greater reduction in percent net growth in the treated samples compared to the vehicle control samples is considered a positive result. Each positive result is given a score of […] and all of the scores are totaled for a given compound. The maximum possible score for an agent is 96 (12 cell lines×2 sites×2 dose levels×2 [score]).
A candidate compound that is screened initially in the hollow fiber assay may subsequently be tested in a xenograft model if it has a combined ip+sc score of 20 or greater, a sc score of 8 or greater, or produces cell kill of any cell line at either dose level evaluated. This scoring system has been validated by DCTDC statisticians in CTEP to represent a level of detection expected to score current “standard” agents as active.
The in vivo efficacy of compounds according to Formula I was tested by determining the efficacy of compound 3 in the hollow fiber assay. This assay is described in Decker et al., Eur. J. of Cancer 40: 821-826 (2004), and was carried out by implanting 12 human tumour cell lines (Breast; MDA-MB-231, MDA-MB-435. Glioma; U251, SF-295. Ovarian; OVCAR-3, OVCAR-5. Colon; COLO-205, SW-620. Melanoma; LOX-IMVI, UACC-62 and Lung; NCI-H23, NCI-H522) into athymic mice as follows. Cell cultures were cultivated in RPMI-1640 containing 10% FBS and 2 mM glutamine. […]

supercoiled plasmid DNA = test: In vitro DNA cleavage assay; assay type: biochemical
Procedure, shortened: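 Supercoiled plasmid DNA (1 μg) in 10 mM sodium phosphate pH 6.7 with 100 μM ascorbate, 25 μM compound and 10 μM CuSO4 was kept 30 min at 37° C., stopped with EDTA and resolved on 1% agarose. Variants used 25 μM Cu, Zn or Fe salts, or compound:Cu ratios set with one component held at 10 μM.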

Sp1 = Sp1 DNA binding activity, EMSA, HT-29 nuclear extracts; assay type: cell-based, human
Experimental: Based on overlapping transcription factor binding sites on KLF4 gene promoter region (as shown in FIG. 32A), MTF-1 binding may favor increased binding of other KLF4 inducers; Sp1 and KLF4.
Electrophoretic mobility shift assay (EMSA) was performed as follows. Nuclear extracts from HT-29 cells (10^7 cells in 100 mm culture dish in each experimental group) were prepared using nuclear extraction kit (Panomics, Redwood City, Calif.). EMSA assays were performed using KLF4 and Sp1 EMSA “Gel-Shift” kits (Panomics), by following the manufacturer's instruction. Briefly, 5 μg of nuclear extract was used for each binding reaction. After 30 min of binding reaction, the samples were separated on 6% polyacrylamide gel at 4° C. at 120 V, and transferred to BrightStar™-Plus positively charged nylon membrane. The biotin-labeled probes on the membrane were visualized by using ECL detection system (Panomics).

Cc1[nH]c2ccccc2c1-c1nc2c3cccnc3c3ncccc3c2[nH]1 [Compound 3]
ip score ([1]; 2 dosages, 4 days treatment): 22 | sc score ([1]; 2 dosages, 4 days treatment): 10 | net cell kill [1]: positive cell killing; also recorded: one or more | net cell kill ([1]; listed as compound 3): positive cell kill | total score ([1]; ip + sc, maximum of 96): 32 | cleavage of plasmid DNA (supercoiled plasmid DNA; 25 μM ZnCl2 or FeCl2 instead of copper): Neither zinc nor iron was able to replace copper | cleavage of plasmid DNA (supercoiled plasmid DNA; 25 μM compound, 10 μM CuSO4, 100 μM ascorbic acid, 37° C., 30 minutes): able to cleave plasmid DNA | cleavage of plasmid DNA (supercoiled plasmid DNA; absence of copper or reducing agent): Neither compound 3 nor OP was able to cleave DNA | cleavage of plasmid DNA (supercoiled plasmid DNA; ratio compound to copper 1:3): able to cleave at a ratio of 1:3 | cleavage of plasmid DNA (supercoiled plasmid DNA; ratios compound to copper 1:1, 1:2, 1:2.5): unable to cleave | DNA binding activity of Sp1 (Sp1): Increased DNA binding activities
